Reference: ChEMBL document CHEMBL3872243, “Synthesis of new morpholine-connected pyrazolidine derivatives and their antimicrobial, antioxidant, and cytotoxic activities” (2017)
≈ marks a conversion by molar mass, not a printed value.

Test system: Aspergillus niger
Test: Antifungal activity against Aspergillus niger after 24 hrs by two fold dilution method
Assay type: functional
Conditions: not given

SMILES	MIC
COc1ccc(C(N2CCOCC2)N2C(c3ccccc3)CC(O)N2c2ccc([N+](=O)[O-])cc2[N+](=O)[O-])cc1 (stereo unspecified)	> 100 µg/mL
CC(C)=CCC/C(C)=C\C(N1CCOCC1)N1C(c2ccccc2)CC(O)N1c1ccc([N+](=O)[O-])cc1[N+](=O)[O-] (stereo unspecified)	8 µg/mL (≈ 14.5 µM)
O=[N+]([O-])c1ccc(N2C(O)CC(c3ccccc3)N2C(c2ccco2)N2CCOCC2)c([N+](=O)[O-])c1 (stereo unspecified)	2 µg/mL (≈ 4.04 µM)
O=[N+]([O-])c1ccc(N2C(O)CC(c3ccccc3)N2C(c2ccccn2)N2CCOCC2)c([N+](=O)[O-])c1 (stereo unspecified)	> 100 µg/mL

Test system: not listed separately
Test: Antioxidant activity assessed as reduction in AAPH free radical-induced linoleic acid peroxidation activity measured at 100 ug/ml by UV spectroscopic analysis
Assay type: functional
Parameters: scale not given: the % may be the effect or the level left
Conditions: not given

SMILES	Activity
COc1ccc(C(N2CCOCC2)N2C(c3ccccc3)CC(O)N2c2ccc([N+](=O)[O-])cc2[N+](=O)[O-])cc1 (stereo unspecified)	59.1%
CC(C)=CCC/C(C)=C\C(N1CCOCC1)N1C(c2ccccc2)CC(O)N1c1ccc([N+](=O)[O-])cc1[N+](=O)[O-] (stereo unspecified)	84.5%
O=[N+]([O-])c1ccc(N2C(O)CC(c3ccccc3)N2C(c2ccco2)N2CCOCC2)c([N+](=O)[O-])c1 (stereo unspecified)	42.8%
O=[N+]([O-])c1ccc(N2C(O)CC(c3ccccc3)N2C(c2ccccn2)N2CCOCC2)c([N+](=O)[O-])c1 (stereo unspecified)	51.3%

Test system: Staphylococcus epidermidis
Test: Antibacterial activity against Staphylococcus epidermidis after 24 hrs by two fold dilution method
Assay type: functional
Conditions: not given

SMILES	MIC
COc1ccc(C(N2CCOCC2)N2C(c3ccccc3)CC(O)N2c2ccc([N+](=O)[O-])cc2[N+](=O)[O-])cc1 (stereo unspecified)	8 µg/mL (≈ 14.9 µM)
CC(C)=CCC/C(C)=C\C(N1CCOCC1)N1C(c2ccccc2)CC(O)N1c1ccc([N+](=O)[O-])cc1[N+](=O)[O-] (stereo unspecified)	8 µg/mL (≈ 14.5 µM)
O=[N+]([O-])c1ccc(N2C(O)CC(c3ccccc3)N2C(c2ccco2)N2CCOCC2)c([N+](=O)[O-])c1 (stereo unspecified)	16 µg/mL (≈ 32.3 µM)
O=[N+]([O-])c1ccc(N2C(O)CC(c3ccccc3)N2C(c2ccccn2)N2CCOCC2)c([N+](=O)[O-])c1 (stereo unspecified)	> 100 µg/mL

Test system: Staphylococcus aureus
Test: Antibacterial activity against Staphylococcus aureus after 24 hrs by two fold dilution method
Assay type: functional
Conditions: not given

SMILES	MIC
COc1ccc(C(N2CCOCC2)N2C(c3ccccc3)CC(O)N2c2ccc([N+](=O)[O-])cc2[N+](=O)[O-])cc1 (stereo unspecified)	4 µg/mL (≈ 7.47 µM)
CC(C)=CCC/C(C)=C\C(N1CCOCC1)N1C(c2ccccc2)CC(O)N1c1ccc([N+](=O)[O-])cc1[N+](=O)[O-] (stereo unspecified)	> 100 µg/mL
O=[N+]([O-])c1ccc(N2C(O)CC(c3ccccc3)N2C(c2ccco2)N2CCOCC2)c([N+](=O)[O-])c1 (stereo unspecified)	20 µg/mL (≈ 40.4 µM)
O=[N+]([O-])c1ccc(N2C(O)CC(c3ccccc3)N2C(c2ccccn2)N2CCOCC2)c([N+](=O)[O-])c1 (stereo unspecified)	18 µg/mL (≈ 35.5 µM)

Test system: Candida albicans
Test: Antifungal activity against Candida albicans after 24 hrs by two fold dilution method
Assay type: functional
Conditions: not given

SMILES	MIC
COc1ccc(C(N2CCOCC2)N2C(c3ccccc3)CC(O)N2c2ccc([N+](=O)[O-])cc2[N+](=O)[O-])cc1 (stereo unspecified)	> 100 µg/mL
CC(C)=CCC/C(C)=C\C(N1CCOCC1)N1C(c2ccccc2)CC(O)N1c1ccc([N+](=O)[O-])cc1[N+](=O)[O-] (stereo unspecified)	0.5 µg/mL (≈ 0.906 µM)
O=[N+]([O-])c1ccc(N2C(O)CC(c3ccccc3)N2C(c2ccco2)N2CCOCC2)c([N+](=O)[O-])c1 (stereo unspecified)	16 µg/mL (≈ 32.3 µM)
O=[N+]([O-])c1ccc(N2C(O)CC(c3ccccc3)N2C(c2ccccn2)N2CCOCC2)c([N+](=O)[O-])c1 (stereo unspecified)	8 µg/mL (≈ 15.8 µM)

Test system: not listed separately
Test: Antioxidant activity assessed as ABTS radical scavenging activity at 100 ug/ml after 30 mins
Assay type: functional
Conditions: not given

SMILES	Activity
COc1ccc(C(N2CCOCC2)N2C(c3ccccc3)CC(O)N2c2ccc([N+](=O)[O-])cc2[N+](=O)[O-])cc1 (stereo unspecified)	61.2%
CC(C)=CCC/C(C)=C\C(N1CCOCC1)N1C(c2ccccc2)CC(O)N1c1ccc([N+](=O)[O-])cc1[N+](=O)[O-] (stereo unspecified)	91.3%
O=[N+]([O-])c1ccc(N2C(O)CC(c3ccccc3)N2C(c2ccco2)N2CCOCC2)c([N+](=O)[O-])c1 (stereo unspecified)	20.7%
O=[N+]([O-])c1ccc(N2C(O)CC(c3ccccc3)N2C(c2ccccn2)N2CCOCC2)c([N+](=O)[O-])c1 (stereo unspecified)	16.8%

Test system: Klebsiella pneumoniae
Test: Antibacterial activity against Klebsiella pneumoniae after 24 hrs by two fold dilution method
Assay type: functional
Conditions: not given

SMILES	MIC
COc1ccc(C(N2CCOCC2)N2C(c3ccccc3)CC(O)N2c2ccc([N+](=O)[O-])cc2[N+](=O)[O-])cc1 (stereo unspecified)	> 100 µg/mL
CC(C)=CCC/C(C)=C\C(N1CCOCC1)N1C(c2ccccc2)CC(O)N1c1ccc([N+](=O)[O-])cc1[N+](=O)[O-] (stereo unspecified)	8 µg/mL (≈ 14.5 µM)
O=[N+]([O-])c1ccc(N2C(O)CC(c3ccccc3)N2C(c2ccco2)N2CCOCC2)c([N+](=O)[O-])c1 (stereo unspecified)	16 µg/mL (≈ 32.3 µM)
O=[N+]([O-])c1ccc(N2C(O)CC(c3ccccc3)N2C(c2ccccn2)N2CCOCC2)c([N+](=O)[O-])c1 (stereo unspecified)	4 µg/mL (≈ 7.9 µM)

Test system: not listed separately
Test: Antifungal activity against Cryptococcus neoformans after 24 hrs by two fold dilution method
Assay type: functional
Conditions: not given

SMILES	MIC
COc1ccc(C(N2CCOCC2)N2C(c3ccccc3)CC(O)N2c2ccc([N+](=O)[O-])cc2[N+](=O)[O-])cc1 (stereo unspecified)	> 100 µg/mL
CC(C)=CCC/C(C)=C\C(N1CCOCC1)N1C(c2ccccc2)CC(O)N1c1ccc([N+](=O)[O-])cc1[N+](=O)[O-] (stereo unspecified)	32 µg/mL (≈ 58 µM)
O=[N+]([O-])c1ccc(N2C(O)CC(c3ccccc3)N2C(c2ccco2)N2CCOCC2)c([N+](=O)[O-])c1 (stereo unspecified)	> 100 µg/mL
O=[N+]([O-])c1ccc(N2C(O)CC(c3ccccc3)N2C(c2ccccn2)N2CCOCC2)c([N+](=O)[O-])c1 (stereo unspecified)	8 µg/mL (≈ 15.8 µM)

Test system: not listed separately
Test: Cytotoxicity against human HeLa cells after 48 hrs by MTT assay
Assay type: functional
Conditions: not given

SMILES	GI50	LC50	TGI
COc1ccc(C(N2CCOCC2)N2C(c3ccccc3)CC(O)N2c2ccc([N+](=O)[O-])cc2[N+](=O)[O-])cc1 (stereo unspecified)	31.8 µM	> 100 µM	63.2 µM
CC(C)=CCC/C(C)=C\C(N1CCOCC1)N1C(c2ccccc2)CC(O)N1c1ccc([N+](=O)[O-])cc1[N+](=O)[O-] (stereo unspecified)	13.8 µM	71.4 µM	29.6 µM
O=[N+]([O-])c1ccc(N2C(O)CC(c3ccccc3)N2C(c2ccco2)N2CCOCC2)c([N+](=O)[O-])c1 (stereo unspecified)	30.8 µM	80.7 µM	52.1 µM
O=[N+]([O-])c1ccc(N2C(O)CC(c3ccccc3)N2C(c2ccccn2)N2CCOCC2)c([N+](=O)[O-])c1 (stereo unspecified)	21.6 µM	87.4 µM	54.7 µM

Test system: not listed separately
Test: Antifungal activity against Microsporum audouinii after 24 hrs by two fold dilution method
Assay type: functional
Conditions: not given

SMILES	MIC
COc1ccc(C(N2CCOCC2)N2C(c3ccccc3)CC(O)N2c2ccc([N+](=O)[O-])cc2[N+](=O)[O-])cc1 (stereo unspecified)	8 µg/mL (≈ 14.9 µM)
CC(C)=CCC/C(C)=C\C(N1CCOCC1)N1C(c2ccccc2)CC(O)N1c1ccc([N+](=O)[O-])cc1[N+](=O)[O-] (stereo unspecified)	16 µg/mL (≈ 29 µM)
O=[N+]([O-])c1ccc(N2C(O)CC(c3ccccc3)N2C(c2ccco2)N2CCOCC2)c([N+](=O)[O-])c1 (stereo unspecified)	0.5 µg/mL (≈ 1.01 µM)
O=[N+]([O-])c1ccc(N2C(O)CC(c3ccccc3)N2C(c2ccccn2)N2CCOCC2)c([N+](=O)[O-])c1 (stereo unspecified)	> 100 µg/mL

Test system: Pseudomonas aeruginosa
Test: Antibacterial activity against Pseudomonas aeruginosa after 24 hrs by two fold dilution method
Assay type: functional
Conditions: not given

SMILES	MIC
COc1ccc(C(N2CCOCC2)N2C(c3ccccc3)CC(O)N2c2ccc([N+](=O)[O-])cc2[N+](=O)[O-])cc1 (stereo unspecified)	> 100 µg/mL
CC(C)=CCC/C(C)=C\C(N1CCOCC1)N1C(c2ccccc2)CC(O)N1c1ccc([N+](=O)[O-])cc1[N+](=O)[O-] (stereo unspecified)	1 µg/mL (≈ 1.81 µM)
O=[N+]([O-])c1ccc(N2C(O)CC(c3ccccc3)N2C(c2ccco2)N2CCOCC2)c([N+](=O)[O-])c1 (stereo unspecified)	64 µg/mL (≈ 129 µM)
O=[N+]([O-])c1ccc(N2C(O)CC(c3ccccc3)N2C(c2ccccn2)N2CCOCC2)c([N+](=O)[O-])c1 (stereo unspecified)	32 µg/mL (≈ 63.2 µM)

Test system: not listed separately
Test: Cytotoxicity against human MCF7 cells after 48 hrs by MTT assay
Assay type: functional
Conditions: MCF7, 48 h

SMILES	LC50	GI50	TGI
COc1ccc(C(N2CCOCC2)N2C(c3ccccc3)CC(O)N2c2ccc([N+](=O)[O-])cc2[N+](=O)[O-])cc1 (stereo unspecified)	> 100 µM	–	–
CC(C)=CCC/C(C)=C\C(N1CCOCC1)N1C(c2ccccc2)CC(O)N1c1ccc([N+](=O)[O-])cc1[N+](=O)[O-] (stereo unspecified)	40.4 µM	7.8 µM	21.9 µM
O=[N+]([O-])c1ccc(N2C(O)CC(c3ccccc3)N2C(c2ccco2)N2CCOCC2)c([N+](=O)[O-])c1 (stereo unspecified)	82 µM	32.1 µM	56.4 µM
O=[N+]([O-])c1ccc(N2C(O)CC(c3ccccc3)N2C(c2ccccn2)N2CCOCC2)c([N+](=O)[O-])c1 (stereo unspecified)	52.3 µM	18.6 µM	41.8 µM

Test system: Escherichia coli
Test: Antibacterial activity against Escherichia coli after 24 hrs by two fold dilution method
Assay type: functional
Conditions: not given

SMILES	MIC
COc1ccc(C(N2CCOCC2)N2C(c3ccccc3)CC(O)N2c2ccc([N+](=O)[O-])cc2[N+](=O)[O-])cc1 (stereo unspecified)	> 100 µg/mL
CC(C)=CCC/C(C)=C\C(N1CCOCC1)N1C(c2ccccc2)CC(O)N1c1ccc([N+](=O)[O-])cc1[N+](=O)[O-] (stereo unspecified)	64 µg/mL (≈ 116 µM)
O=[N+]([O-])c1ccc(N2C(O)CC(c3ccccc3)N2C(c2ccco2)N2CCOCC2)c([N+](=O)[O-])c1 (stereo unspecified)	64 µg/mL (≈ 129 µM)
O=[N+]([O-])c1ccc(N2C(O)CC(c3ccccc3)N2C(c2ccccn2)N2CCOCC2)c([N+](=O)[O-])c1 (stereo unspecified)	> 100 µg/mL

Test system: not listed separately
Test: Cytotoxicity against human HepG2 cells after 48 hrs by MTT assay
Assay type: functional
Conditions: HepG2, 48 h

SMILES	LC50	GI50	TGI
COc1ccc(C(N2CCOCC2)N2C(c3ccccc3)CC(O)N2c2ccc([N+](=O)[O-])cc2[N+](=O)[O-])cc1 (stereo unspecified)	> 100 µM	–	–
CC(C)=CCC/C(C)=C\C(N1CCOCC1)N1C(c2ccccc2)CC(O)N1c1ccc([N+](=O)[O-])cc1[N+](=O)[O-] (stereo unspecified)	> 100 µM	38.1 µM	69.1 µM
O=[N+]([O-])c1ccc(N2C(O)CC(c3ccccc3)N2C(c2ccco2)N2CCOCC2)c([N+](=O)[O-])c1 (stereo unspecified)	> 100 µM	41.4 µM	64.8 µM
O=[N+]([O-])c1ccc(N2C(O)CC(c3ccccc3)N2C(c2ccccn2)N2CCOCC2)c([N+](=O)[O-])c1 (stereo unspecified)	67.5 µM	29.1 µM	46.8 µM
